# In patent US9580390B2, “Indazole compounds as kinase inhibitors and method of treating cancer with same” (University Health Network, priority 2011, dated 2017):
# Like-named read-outs stand apart in the source and are kept apart here.
# Key:
# [1] = test system: colon cancer cells (HCT116); test: Cancer cell line growth inhibition (SRB assay); format: cell-based; conditions: Homo sapiens, HCT-116, read-out: Cancer Cell Line GI50 Range HCT116
# [2] = test system: ovarian cancer cells (PA-1); test: Cancer cell line growth inhibition (SRB assay); format: cell-based; conditions: read-out: Cancer Cell Line GI50 Range PA-1
# [3] = HCT116 colon cancer cells, SRB assay
# [4] = PA-1 ovarian cancer cells, SRB assay
"GI50 [1, 3] [nM]",Compound,further results
100 to 500,"COCCN1CCC(Oc2ccc(-c3n[nH]c4ccc(C(=O)NC(c5ccccc5)C5CCCC5)cc34)cc2)CC1 (stereo not drawn) [Example A161, N-(cyclopentyl(phenyl)methyl)-3-(4-((1-(2-methoxyethyl)piperidin-4-yl)oxy)phenyl)-1H-indazole-5-carboxamide]","GI50 [2, 4]: 100 to 500 nM"
< 100,"O=C(N[C@@H](c1ccccn1)C1CC1)c1ccc2[nH]nc(-c3ccc(OC4CCN(C5COC5)CC4)cc3)c2c1 [Example A196, (R)-N-(cyclopropyl(pyridin-2-yl)methyl)-3-(4-((1-(oxetan-3-yl)piperidin-4-yl)oxy)phenyl)-1H-indazole-5-carboxamide]","GI50 [2, 4]: < 100 nM"
100 to 500,"CC(C)(O)C1CCN(c2ccc(-c3n[nH]c4ccc(C(=O)NC(c5ccccc5)C5CC5)cc34)cc2)CC1 (stereo not drawn) [Example A112, N-(cyclopropyl(phenyl)methyl)-3-(4-(4-(2-hydroxypropan-2-yl)piperidin-1-yl)phenyl)-1H-indazole-5-carboxamide]","GI50 [2, 4]: 100 to 500 nM"
100 to 500,"O=C(NC(c1ccccc1)C1CC1)c1ccc2[nH]nc(-c3ccc(OC4CCN(CCF)CC4)cc3)c2c1 (stereo not drawn) [Example A122, N-(cyclopropyl(phenyl)methyl)-3-(4-((1-(2-fluoroethyl)piperidin-4-yl)oxy)phenyl)-1H-indazole-5-carboxamide]","GI50 [2, 4]: 100 to 500 nM"
> 500,"CCc1cccc(CC)c1NC(=O)Nc1ccc2[nH]nc(-c3ccc4c(c3)CN(C)CCO4)c2c1 [Example A114, 1-(2,6-diethylphenyl)-3-(3-(4-methyl-2,3,4,5-tetrahydrobenzo[f][1,4]oxazepin-7-yl)-1H-indazol-5-yl)urea]","GI50 [2, 4]: > 500 nM"
100 to 500,"CN1CCOc2ccc(-c3n[nH]c4ccc(NC(=O)C(c5ccsc5)N5CCCC5)cc34)cc2C1 (stereo not drawn) [Example A90, N-(3-(4-methyl-2,3,4,5-tetrahydrobenzo[f][1,4]oxazepin-7-yl)-1H-indazol-5-yl)-2-(pyrrolidin-1-yl)-2-(thiophen-3-yl)acetamide]","GI50 [2, 4]: > 500 nM"
> 500,"CN1CCC(Oc2ccc(-c3n[nH]c4ccc(C(=O)NCc5ccccc5CN5CCOCC5)cc34)cc2)CC1 [Example A109, 3-(4-(1-Methylpiperidin-4-yloxy)phenyl)-N-(2-(morpholinomethyl)benzyl)-1H-indazole-5-carboxamide]","GI50 [2, 4]: 100 to 500 nM"
100 to 500,"Cc1ccccc1C(NC(=O)c1ccc2[nH]nc(-c3ccc(N4CC(O)C4)cc3)c2c1)C1CC1 (stereo not drawn) [Example A141, N-(cyclopropyl(o-tolyl)methyl)-3-(4-(3-hydroxyazetidin-1-yl)phenyl)-1H-indazole-5-carboxamide]","GI50 [2, 4]: 100 to 500 nM"
100 to 500,"Cc1ccccc1C(NC(=O)c1ccc2[nH]nc(-c3ccc(OC4CCN(C)CC4)cc3)c2c1)C(C)C (stereo not drawn) [Example A143, N-(2-methyl-1-(o-tolyl)propyl)-3-(4-((1-methylpiperidin-4-yl)oxy)phenyl)-1H-indazole-5-carboxamide]","GI50 [2, 4]: 100 to 500 nM"
100 to 500,"CN1CCC(Oc2ccc(-c3n[nH]c4ccc(C(=O)NCC(c5ccsc5)N5CCOCC5)cc34)cc2)CC1 (stereo not drawn) [Example A75, 3-(4-((1-methylpiperidin-4-yl)oxy)phenyl)-N-(2-morpholino-2-(thiophen-3-yl)ethyl)-1H-indazole-5-carboxamide]",
> 500,"CN1CCC(Oc2ccc(-c3n[nH]c4ccc(NC(=O)N5CCCc6ccccc65)cc34)cc2)CC1 [Example A73, N-(3-(4-((1-methylpiperidin-4-yl)oxy)phenyl)-1H-indazol-5-yl)-3,4-dihydroquinoline-1(2H)-carboxamide]",
> 500,"CN1CCC(Oc2ccc(-c3n[nH]c4ccc(C(=O)NCC(C)(C)N5CCOCC5)cc34)cc2)CC1 [Example A74, N-(2-methyl-2-morpholinopropyl)-3-(4-((1-methylpiperidin-4-yl)oxy)phenyl)-1H-indazole-5-carboxamide]",
< 100,"CC[C@@H](NC(=O)c1ccc2[nH]nc(-c3ccc(OC4CCN(C)CC4)cc3)c2c1)c1cccs1 [Example A63, (R)-3-(4-((1-methylpiperidin-4-yl)oxy)phenyl)-N-(1-(thiophen-2-yl)propyl)-1H-indazole-5-carboxamide]",
< 100,"C[C@H]1CCCN1[C@H](C(=O)Nc1ccc2[nH]nc(-c3ccc(N4CCOCC4)cc3)c2c1)c1cccs1 [Example A79, (R)-2-((S)-2-methylpyrrolidin-1-yl)-N-(3-(4-morpholinophenyl)-1H-indazol-5-yl)-2-(thiophen-2-yl)acetamide]",
< 100,"CN(c1ccc(-c2n[nH]c3ccc(NC(=O)C(c4ccsc4)N4CCCC4)cc23)cc1)C1CCOCC1 (stereo not drawn) [Example A78, N-(3-(4-(methyl(tetrahydro-2H-pyran-4-yl)amino)phenyl)-1H-indazol-5-yl)-2-(pyrrolidin-1-yl)-2-(thiophen-3-yl)acetamide]",
< 100,"CN1CCC(Oc2ccc(-c3n[nH]c4ccc(NC(=O)C(c5ccsc5)N5CCCC5)cc34)cc2N)CC1 (stereo not drawn) [Example A80, N-(3-(3-amino-4-((1-methylpiperidin-4-yl)oxy)phenyl)-1H-indazol-5-yl)-2-(pyrrolidin-1-yl)-2-(thiophen-3-yl)acetamide]",
100 to 500,"CC[C@@H](NC(=O)c1ccc2[nH]nc(-c3ccc(N4CCOCC4)cc3)c2c1)c1cccs1 [Example A58, (R)-3-(4-morpholinophenyl)-N-(1-(thiophen-2-yl)propyl)-1H-indazole-5-carboxamide]",

# Continued, molecule first:
Compound,"GI50 [1, 3] [nM]",further results
"O=CN1CCC(Oc2ccc(-c3n[nH]c4ccc(C(=O)N[C@@H](c5ncccc5Cl)C5CC5)cc34)cc2)CC1 [Example A211, (R)-N-((3-chloropyridin-2-yl)(cyclopropyl)methyl)-3-(4-((1-formylpiperidin-4-yl)oxy)phenyl)-1H-indazole-5-carboxamide]",,"GI50 [1]: 100 to 500 nM; GI50 ([2]; Homo sapiens, PA-1): 100 to 500 nM"
"O=C(Nc1ccc2[nH]nc(-c3ccc(N4CCOCC4)cc3)c2c1)C1CCCc2ccccc21 (stereo not drawn) [Example A22, N-(3-(4-morpholinophenyl)-1H-indazol-5-yl)-1,2,3,4-tetrahydronaphthalene-1-carboxamide]",100 to 500,
"O=C(Nc1ccc2[nH]nc(-c3ccc(CCN4CCOCC4)cc3)c2c1)C(c1ccsc1)N1CCCC1 (stereo not drawn) [Example A6, N-(3-(4-(2-morpholinoethyl)phenyl)-1H-indazol-5-yl)-2-(pyrrolidin-1-yl)-2-(thiophen-3-yl)acetamide]",100 to 500,
"C[C@@H](NC(=O)c1ccc2[nH]nc(-c3ccc(N4CCOCC4)cc3)c2c1)C1CCCCC1 [Example A48, (R)-N-(1-cyclohexylethyl)-3-(4-morpholinophenyl)-1H-indazole-5-carboxamide]",> 500,
"C[C@@H](NC(=O)c1ccc2[nH]nc(-c3ccc(OC4CCN(C)CC4)cc3)c2c1)c1cccs1 [Example A55, (R)-3-(4-((1-methylpiperidin-4-yl)oxy)phenyl)-N-(1-(thiophen-2-yl)ethyl)-1H-indazole-5-carboxamide]",< 100,
"COc1cc(-c2n[nH]c3ccc(NC(=O)C(c4ccsc4)N4CCCC4)cc23)ccc1N1CCN(C)CC1 (stereo not drawn) [Example A10, N-(3-(3-methoxy-4-(4-methylpiperazin-1-yl)phenyl)-1H-indazol-5-yl)-2-(pyrrolidin-1-yl)-2-(thiophen-3-yl)acetamide]",100 to 500,
"CN1CCC(Oc2ccc(-c3n[nH]c4ccc(NC(=O)C(c5ccsc5)C5CCCC5)cc34)cc2)CC1 (stereo not drawn) [Example A36, 2-cyclopentyl-N-(3-(4-((1-methylpiperidin-4-yl)oxy)phenyl)-1H-indazol-5-yl)-2-(thiophen-3-yl)acetamide]",< 100,
"CC(C)N1CCC(Oc2ccc(-c3n[nH]c4ccc(NC(=O)C(c5ccsc5)N5CCCC5)cc34)cc2)CC1 (stereo not drawn) [Example A30, N-(3-(4-((1-isopropylpiperidin-4-yl)oxy)phenyl)-1H-indazol-5-yl)-2-(pyrrolidin-1-yl)-2-(thiophen-3-yl)acetamide]",< 100,
"O=C(Nc1ccc2[nH]nc(-c3ccc(OC4CCNCC4)cc3)c2c1)C(c1ccsc1)N1CCCC1 (stereo not drawn) [Example A28, N-(3-(4-(piperidin-4-yloxy)phenyl)-1H-indazol-5-yl)-2-(pyrrolidin-1-yl)-2-(thiophen-3-yl)acetamide]",< 100,
"CN1CCN(c2ccc(-c3n[nH]c4ccc(NC(=O)C(c5ccsc5)N5CCCC5)cc34)cc2)CC1 (stereo not drawn) [Example A2, N-(3-(4-(4-methylpiperazin-1-yl)phenyl)-1H-indazol-5-yl)-2-(pyrrolidin-1-yl)-2-(thiophen-3-yl)acetamide]",< 100,
"CN1CCC(Oc2ccc(-c3n[nH]c4ccc(NC(=O)C(c5ccsc5)N5CCCCC5)cc34)cc2)CC1 (stereo not drawn) [Example A31, N-(3-(4-((1-methylpiperidin-4-yl)oxy)phenyl)-1H-indazol-5-yl)-2-(piperidin-1-yl)-2-(thiophen-3-yl)acetamide]",< 100,
"COC(C(=O)Nc1ccc2[nH]nc(-c3ccc(OC4CCN(C)CC4)cc3)c2c1)c1ccsc1 (stereo not drawn) [Example A37, 2-methoxy-N-(3-(4-((1-methylpiperidin-4-yl)oxy)phenyl)-1H-indazol-5-yl)-2-(thiophen-3-yl)acetamide]",< 100,
"O=C(Nc1ccc2[nH]nc(-c3cccc(CN4CCOCC4)c3)c2c1)C(c1ccsc1)N1CCCC1 (stereo not drawn) [Example A1, N-(3-(3-(morpholinomethyl)phenyl)-1H-indazol-5-yl)-2-(pyrrolidin-1-yl)-2-(thiophen-3-yl)acetamide]",> 500,
"C[C@H](NC(=O)c1ccc2[nH]nc(-c3ccc(OC4CCN(C)CC4)cc3)c2c1)C1CCCCC1 [Example A38, (S)-N-(1-cyclohexylethyl)-3-(4-((1-methylpiperidin-4-yl)oxy)phenyl)-1H-indazole-5-carboxamide]",< 100,
"CN1CCOc2cc(-c3n[nH]c4ccc(NC(=O)C(c5ccsc5)N5CCCC5)cc34)ccc21 (stereo not drawn) [Example A17, N-(3-(4-methyl-3,4-dihydro-2H-benzo[b][1,4]oxazin-7-yl)-1H-indazol-5-yl)-2-(pyrrolidin-1-yl)-2-(thiophen-3-yl)acetamide]",> 500,
